This note sets out measurements from ChEMBL document CHEMBL1157265, “Chaetoglobosin U, a cytochalasan alkaloid from endophytic Chaetomium globosum IFB-E019” (J Nat Prod, 2006).

Structures are written as SMILES.

The term IC50 denotes the point on the concentration scale where inhibition reaches its midpoint.

The experiment concerns KB. The experiment can be described thus: Cytotoxicity against human KB cells after 48 hrs by MTT assay. It is filed as functional, cell-based. (In general: Tetrazolium dyes change colour on reduction, which living cells bring about.)
Turning to `CC1=C(C)[C@H]2[C@H](Cc3c[nH]c4ccccc34)NC(=O)[C@]23C(=O)CC[C@H](O)C(=O)/C(C)=C/[C@@H](C)C/C=C/[C@H]3[C@@H]1O` [CHAETOGLOBOSIN E], the concentration for half-maximal inhibition (IC50) was determined as 40 µM.

Compound `C/C1=C\[C@@H](C)C/C=C/[C@H]2[C@@H]3O[C@]3(C)[C@@H](C)[C@H]3[C@H](Cc4c[nH]c5ccccc45)NC(=O)[C@]32C(=O)CCC(=O)C1=O` [CHAETOGLOBOSIN C] gave a half-maximal inhibitory concentration (IC50) of 34 µM.

With `C/C1=C\[C@@H](C)C/C=C/[C@H]2[C@@H]3O[C@]3(C)[C@@H](C)[C@H]3[C@H](Cc4c[nH]c5ccccc45)NC(=O)[C@]32C(=O)CC[C@H](O)C1=O` [CHAETOGLOBOSIN F], 52 µM corresponded to half-maximal inhibition (IC50).

On to `C/C1=C\[C@@H](C)C/C=C/[C@H]2[C@@H]3O[C@]3(C)[C@@H](C)[C@H]3[C@H](Cc4c[nH]c5ccccc45)NC(=O)[C@]32c2ccc([nH]2)C(=O)C1=O` [PENOCHALASIN A], for which it took 48 µM to reach half-maximal inhibition (IC50).

The compound `CC1=C(O)C(=O)[C@@H]2CC(=O)[C@@]34C(=O)N[C@@H](Cc5c[nH]c6ccccc56)[C@@H]3[C@H](C)[C@@]3(C)O[C@H]3[C@@H]4/C=C/C[C@H](C)[C@@H]12` [CHAETOGLOBOSIN U] returned an IC50 of 16 µM.
